# Test results: the Kinase Knowledgebase extract (Sharma et al. 2016)
# Target: PIK3CD (Human) (UniProt O00329)
# Assay: Assessment of PIK3CD Kinase Activity
# Chain of PIK3CD (Human) (O00329 whole entry, looked up): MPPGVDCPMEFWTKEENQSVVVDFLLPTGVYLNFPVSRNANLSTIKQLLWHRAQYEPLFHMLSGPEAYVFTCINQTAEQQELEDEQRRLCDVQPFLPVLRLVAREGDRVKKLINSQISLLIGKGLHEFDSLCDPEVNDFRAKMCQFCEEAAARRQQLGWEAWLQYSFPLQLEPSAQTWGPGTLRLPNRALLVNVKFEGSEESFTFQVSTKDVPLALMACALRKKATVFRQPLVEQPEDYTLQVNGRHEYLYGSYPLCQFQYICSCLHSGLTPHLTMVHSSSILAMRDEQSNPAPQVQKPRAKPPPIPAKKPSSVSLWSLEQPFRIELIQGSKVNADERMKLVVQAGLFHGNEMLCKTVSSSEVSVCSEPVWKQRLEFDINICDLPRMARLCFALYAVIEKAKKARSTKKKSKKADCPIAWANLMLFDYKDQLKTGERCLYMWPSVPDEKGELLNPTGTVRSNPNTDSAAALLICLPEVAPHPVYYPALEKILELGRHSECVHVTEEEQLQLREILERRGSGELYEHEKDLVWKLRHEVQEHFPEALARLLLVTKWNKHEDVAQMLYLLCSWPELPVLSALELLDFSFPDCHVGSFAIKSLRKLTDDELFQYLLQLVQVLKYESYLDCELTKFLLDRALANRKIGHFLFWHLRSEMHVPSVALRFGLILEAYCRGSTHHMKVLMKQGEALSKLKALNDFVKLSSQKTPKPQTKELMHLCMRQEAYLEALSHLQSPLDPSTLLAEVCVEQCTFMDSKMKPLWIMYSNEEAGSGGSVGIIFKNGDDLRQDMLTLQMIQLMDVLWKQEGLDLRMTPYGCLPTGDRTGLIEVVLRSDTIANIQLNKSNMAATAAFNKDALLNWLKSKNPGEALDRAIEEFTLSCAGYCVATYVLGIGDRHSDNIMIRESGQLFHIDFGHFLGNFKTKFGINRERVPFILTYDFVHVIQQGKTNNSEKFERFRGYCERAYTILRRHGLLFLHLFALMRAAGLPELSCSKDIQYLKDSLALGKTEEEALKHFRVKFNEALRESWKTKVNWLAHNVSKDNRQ
row,Structure (SMILES),IC50 [nM]
1,Cn1c(C(=O)NCC2CC2)nc2c(N3CCC(C4C(=O)Nc5ccccc54)CC3)ncnc21 (centres undefined),250 to 500
2,Cc1cccc(-n2ncc3c2CCN(c2ncnc4c2nc(C(=O)NCC2CC2)n4C)C3)c1,500 to 1500
3,Cc1ccc(-n2ncc3c2CCN(c2ncnc4c2nc(C(=O)NCC2CC2)n4C)C3)c(C)c1,500 to 1500
4,COc1cccc2c1[nH]c(=O)n2C1CCN(c2ncnc3c2nc(C(=O)NCC2CC2)n3C)CC1,50 to 250
5,Cc1ccccc1-n1ncc2c1CCN(c1ncnc3c1nc(C(=O)NCC1CC1)n3C)C2,500 to 1500
6,Cn1c(C(=O)NCC2CC2)nc2c(N3CCc4c(cnn4-c4ccccc4)C3)ncnc21,250 to 500
7,CC1CN(c2ncnc3c2nc(C(=O)NCC2CC2)n3C)CCC1n1c(=O)[nH]c2ccccc21 (centres undefined),50 to 250
8,Cn1c(C(=O)NCC2CC2)nc2c(N3CCC(n4c(N)nc5ccccc54)CC3)ncnc21,50 to 250
9,CN(C)C1CN(C(=O)c2nc3c(N4CCC5(CC4)C(=O)NCN5c4ccccc4)ncnc3n2C)C1,500 to 1500
10,Cn1c(C(=O)NCC2CC2)nc2c(N3CCC(n4c(=O)[nH]c5ccccc54)CC3)ncnc21,50 to 250
11,COc1ccc(S(=O)(=O)N2CCN(c3ncnc4c3nc(-c3cnn(C)c3)n4C)CC2)cc1,500 to 1500
12,CN1CCN(c2cccc3c2[nH]c(=O)n3C2CCN(c3ncnc4c3nc(C(=O)NCC3CC3)n4C)CC2)CC1,50 to 250
13,Cc1cccc(C)c1-n1ncc2c1CCN(c1ncnc3c1nc(C(=O)NCC1CC1)n3C)C2,500 to 1500

# Results, then the compound that gave them:
row,IC50 [nM],Structure (SMILES)
1,< 50,CCCn1cc(-c2nc3c(N4CCC(n5c(=O)[nH]c6ccccc65)CC4)ncnc3n2CC)cn1
2,< 50,CCn1c(-c2cn[nH]c2)nc2c(N3CCC(n4c(=O)[nH]c5ccccc54)CC3)ncnc21
3,< 50,CN(C)c1ccc(-c2nc3c(N4CCC(n5c(=O)[nH]c6ccccc65)CC4)ncnc3n2C)cn1
4,50 to 250,Cn1c(C(=O)N2CC[C@@H](F)C2)nc2c(N3CCC(n4c(=O)[nH]c5ccccc54)CC3)ncnc21
5,< 50,Cc1c(-c2nc3c(N4CCC(n5c(=O)[nH]c6c(F)cccc65)CC4)ncnc3n2C)cnn1C
6,< 50,Cn1c(-c2cn[nH]c2)nc2c(N3CCC(n4c(=O)[nH]c5ccccc54)CC3)ncnc21
